Data: ChEMBL document CHEMBL1201862, “PubChem BioAssay data set” (2004)
Active and inactive are the calls of the source.

Tests used:
Orexin receptor type 2 [1] = target: T1, Orexin receptor type 2 (Homo sapiens, UniProt O43614); test: Counterscreen assay for antagonists of the orexin 1 receptor (OX1R; HCRTR1): Homogeneous Time Resolved Fluorescence (HTRF)-based cell-based dose response assay for antagonists of the orexin 2 receptor (OX2R; HCRTR2), run by assay provider.; type: functional
T1 sequence (O43614 whole entry): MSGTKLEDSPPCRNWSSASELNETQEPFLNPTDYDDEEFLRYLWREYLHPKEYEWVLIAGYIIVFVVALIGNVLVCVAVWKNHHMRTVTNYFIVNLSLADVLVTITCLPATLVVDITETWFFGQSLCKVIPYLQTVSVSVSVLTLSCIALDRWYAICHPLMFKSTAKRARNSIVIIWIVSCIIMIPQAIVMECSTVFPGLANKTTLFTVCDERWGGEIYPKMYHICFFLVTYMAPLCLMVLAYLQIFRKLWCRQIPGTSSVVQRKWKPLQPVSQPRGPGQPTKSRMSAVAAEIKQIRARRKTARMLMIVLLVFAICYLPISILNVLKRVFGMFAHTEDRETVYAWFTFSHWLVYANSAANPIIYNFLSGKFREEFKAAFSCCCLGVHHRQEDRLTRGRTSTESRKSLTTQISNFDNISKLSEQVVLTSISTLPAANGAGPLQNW

Orexin receptor type 2 [2] = target: T1, Orexin receptor type 2; test: Counterscreen assay for antagonists of the orexin 1 receptor (OX1R; HCRTR1): Fluorescence-based cell-based dose response assay for antagonists of the orexin 2 receptor (OX2R; HCRTR2), run by assay provider.; type: functional
[3] = target: T2, Orexin/Hypocretin receptor type 1 (Homo sapiens, UniProt O43613); test: (§1) Fluorescence-based cell-based high throughput dose response assay for antagonists of the orexin 1 receptor (OX1R; HCRTR1). [Related pubchem assays (depositor defined):AID434989, AID435008, AID463079, AID485270, AID492963, AID492964, AID492965, AID493232, AID504717, AID504718]; type: functional
T2 sequence (O43613 whole entry): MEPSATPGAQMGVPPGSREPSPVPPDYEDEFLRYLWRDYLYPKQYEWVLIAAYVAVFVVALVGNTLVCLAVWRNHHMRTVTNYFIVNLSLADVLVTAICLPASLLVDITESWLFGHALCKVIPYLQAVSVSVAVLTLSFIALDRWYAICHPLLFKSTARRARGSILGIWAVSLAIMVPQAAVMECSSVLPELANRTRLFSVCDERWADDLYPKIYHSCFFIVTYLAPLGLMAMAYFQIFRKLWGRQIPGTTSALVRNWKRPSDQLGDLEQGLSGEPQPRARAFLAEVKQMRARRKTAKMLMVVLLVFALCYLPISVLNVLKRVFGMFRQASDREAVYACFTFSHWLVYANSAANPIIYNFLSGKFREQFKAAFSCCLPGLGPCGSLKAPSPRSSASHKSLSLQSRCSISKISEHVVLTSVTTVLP

[4] = (§2) Counterscreen for antagonists of the orexin 1 receptor (OX1R; HCRTR1): Fluorescence-based cell-based high throughput dose response assay to identify antagonists of the parental CHO cell line. [Related pubchem assays (depositor defined):AID434989, AID435008, AID463079, AID485270, AID492963, AID492964, AID492965, AID493232, AID504699, AID504701]; type: functional
CHO-K1 = test: as §2, with “Homogeneous time resolved fluorescence (HTRF)-based” for “Fluorescence-based”, “cell-based” for “cell-based high throughput”, “CHO-K1” for “CHO”; type: functional; settings: Cricetulus griseus;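 also: potency for inhibition of ATP-stimulated IP1 production as antagonists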
[5] = target: T2, Orexin/Hypocretin receptor type 1; test: as §1, with “Homogeneous Time Resolved Fluorescence (HTRF)-based” for “Fluorescence-based”; type: functional
[6] = inhibitors of PGC1a acetylation in cells, dose response, cell-based, cherry-picked samples (AID 720514); type: functional;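 also: potency may reflect raised or lowered acetylation signal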
[7] = LGR2 antagonists, dose response, cell-based, HEK293, CRE-luciferase reporter, cherry pick, set 2 (AID 743343); type: functional;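 also: transfected cells were stimulated with diluted bursicon conditioned medium after compound addition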
[8] = cytotoxicity toward DRD oncogenic fibroblasts, dose response, cell-based, non-viral oncogenic, luminescence (AID 1934); type: functional; settings: Homo sapiens
[9] = NIH-3T3 fibroblast cytotoxicity, dose response, cytotoxicity control, cell-based, fluorescence, Alamar Blue, secondary assay (AID 2327); type: functional;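 also: NIH-3T3 mouse fibroblasts cultured with fluconazole at 8 µg/mL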
Streptococcus = test: Group A Streptococcus viability loss, dose response, counter-screen for streptokinase expression inhibitor project, luminescence, BacTiterGlo (AID 1915); type: functional, organism-based;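 also: potency for reduction of bacterial viability or growth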
BJ [10] = test: cytotoxicity toward BJ-TERT fibroblasts, dose response, cell-based, RAS-independent, luminescence (AID 1933); type: functional; settings: Homo sapiens
[11] = test system: Streptococcus sp. 'group A'; test: growth inhibition of control SK(-) GAS strain, dose response, counter-screen for streptokinase expression inhibitor project, luminescence, kanamycin, BacTiterGlo, confirmation (AID 1900); type: functional, organism-based
Paired box protein Pax-8 = Paired box protein Pax-8 (Homo sapiens, UniProt Q06710); test: inhibitors of PAX8-driven TPO luciferase reporter, dose response, RMG-I cells, cherry-pick (AID 687027); type: functional, cell-based;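 also: luciferase reporter driven by Pax8 target thyroperoxidase promoter measured by SteadyGlo luminescence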
[12] = Luminescence Cell-Based Dose Response HTS to Identify Inhibitors of 5'UTR Stem-Loop Driven Prion Protein mRNA Translation in H4 Neuroglioblastoma Cells. [Related pubchem assays: 1827 (Project Summary), 1813 (Primary HTS)]; type: functional
BJ [13] = test: cytotoxicity toward BJ-TERT-LT-ST fibroblasts, dose response, cell-based, RAS-independent, luminescence (AID 1935); type: functional; settings: Homo sapiens;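 also: BJ fibroblasts immortalized with TERT plus LT and ST oncogenes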
BJ [14] = test: cells; type: functional, cell-based; settings: Homo sapiens
[15] = target: T3, Ubiquitin-conjugating enzyme E2 N (Homo sapiens, UniProt P61088); type: functional;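 also: Dose-response confirmation in a TR-FRET assay detecting UBC13-driven polyubiquitin chain formation, inhibition measured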
T3 sequence (P61088 whole entry): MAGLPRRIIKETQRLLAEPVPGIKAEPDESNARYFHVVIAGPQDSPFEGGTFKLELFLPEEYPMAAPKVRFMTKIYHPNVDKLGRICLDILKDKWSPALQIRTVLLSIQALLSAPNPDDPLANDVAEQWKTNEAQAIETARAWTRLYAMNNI

[16] = C. albicans growth with fluconazole, confirmation, fluorescence, retest (AID 2467); type: functional, cell-based
BJ [17] = test: cytotoxicity toward Ras-transformed BJeLR fibroblasts, dose response, cell-based, alamar blue fluorescence, cherrypicked samples (AID 2631); type: functional; settings: Homo sapiens;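 also: confirmatory dose-response assay in RAS-dependent BJ fibroblasts engineered with TERT, LT and ST, with cytotoxicity read by fluorescence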
HEK293 [18] = test: HEK cell cytotoxicity by LDH release, dose response, cytotoxicity control for IDE activator project, fluorescence, HEK cells (AID 588440); type: functional, cell-based; settings: Homo sapiens;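 also: cytotoxicity by LDH release measuring loss of membrane integrity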
[19] = A549 cell cytotoxicity, dose response, cytotoxicity control, plate reader, cherry-pick, antagonist series (AID 743412); type: functional, cell-based
[20] = inhibitors of firefly luciferase expression or activity, dose response, H4 neuroglioma cells, luminescence (AID 1990); type: functional, cell-based
INS1 = test: beta cell apoptosis inhibitors, cytokine rescue, dose response, luminescence, retest (AID 449756); type: functional, cell-based; settings: Rattus norvegicus;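 also: cell death triggered by IL-1 beta plus TNF-alpha plus IFN-gamma mixture; protective hits raise ATP signal compared with cytokine alone wells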
[21] = cytotoxicity in HEK-293T cells, dose response, cytotoxicity control for TCR NF-kB inhibitor project, luminescence, T-cell screen hits (AID 489026); type: functional, cell-based;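 also: cells exposed to compound about 14 hours before the viability readout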
[22] = inhibitors of SNCA 5'UTR-driven reporter translation, confirmation, H4 neuroglioma cells, luminescence (AID 1988); type: functional, cell-based
Insulin-degrading enzyme [23] = target: T4, Insulin-degrading enzyme (Homo sapiens, UniProt P14735); test: activators of recombinant IDE enzyme, dose response, counter-screen for IDE activator project, biochemical, fluorescence polarization (AID 588681)
T4 sequence (P14735 whole entry): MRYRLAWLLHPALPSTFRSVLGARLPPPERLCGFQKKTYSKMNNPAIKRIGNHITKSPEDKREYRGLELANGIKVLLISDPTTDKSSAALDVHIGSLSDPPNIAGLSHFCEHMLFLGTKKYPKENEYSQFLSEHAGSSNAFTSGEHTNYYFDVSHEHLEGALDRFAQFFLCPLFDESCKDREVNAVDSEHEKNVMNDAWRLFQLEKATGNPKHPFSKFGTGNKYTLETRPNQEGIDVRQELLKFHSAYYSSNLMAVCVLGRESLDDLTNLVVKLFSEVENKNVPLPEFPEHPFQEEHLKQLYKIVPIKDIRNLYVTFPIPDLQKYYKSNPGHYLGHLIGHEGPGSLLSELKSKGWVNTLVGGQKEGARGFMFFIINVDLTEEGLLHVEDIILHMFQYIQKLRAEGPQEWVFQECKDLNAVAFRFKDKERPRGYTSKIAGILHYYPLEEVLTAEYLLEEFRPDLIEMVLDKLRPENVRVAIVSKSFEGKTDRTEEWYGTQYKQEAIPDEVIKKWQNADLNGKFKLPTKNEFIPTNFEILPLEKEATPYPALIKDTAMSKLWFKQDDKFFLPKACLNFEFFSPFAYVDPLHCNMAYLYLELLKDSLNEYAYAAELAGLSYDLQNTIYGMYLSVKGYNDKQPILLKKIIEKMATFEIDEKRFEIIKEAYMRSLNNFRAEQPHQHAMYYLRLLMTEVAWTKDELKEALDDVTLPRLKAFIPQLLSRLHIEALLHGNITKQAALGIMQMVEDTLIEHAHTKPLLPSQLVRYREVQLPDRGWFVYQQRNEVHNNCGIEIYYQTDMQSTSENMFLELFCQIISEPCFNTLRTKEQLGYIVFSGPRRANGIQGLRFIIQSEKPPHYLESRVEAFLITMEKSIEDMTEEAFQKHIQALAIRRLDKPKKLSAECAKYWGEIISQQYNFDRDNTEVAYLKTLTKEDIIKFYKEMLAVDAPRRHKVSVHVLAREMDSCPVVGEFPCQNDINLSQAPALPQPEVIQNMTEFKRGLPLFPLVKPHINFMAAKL

HEK293 [24] = test: optical interference in Abeta FP readout, dose response, artefact control for IDE activator project, biochemical, fluorescence polarization (AID 588442); type: functional, cell-based; settings: Homo sapiens
[25] = MC4R antagonists, dose response, counter-screen for LGR2 antagonist project, cell-based, plate reader, cherry pick (AID 743444); type: functional;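 also: transfected HEK 293 cells stimulated with alpha-MSH peptide; potency of inhibitors of the alpha-MSH evoked signal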
[26] = HepG2 cell cytotoxicity, dose response, cytotoxicity control, plate reader, cherry-pick, antagonist series (AID 743416); type: functional, cell-based
[27] = HEK293 cell cytotoxicity, dose response, cytotoxicity control, plate reader, cherry-picked samples (AID 743446); type: functional, cell-based
Insulin-degrading enzyme [28] = target: T4, Insulin-degrading enzyme; test: activators of endogenous IDE in HEK cells, dose response, cell-based, fluorescence polarization (AID 588439); type: functional
[29] = target: T5, Calpain-2 catalytic subunit (Sus scrofa, UniProt P43367); test: pig calpain II inhibitor potency, dose response, biochemical, fluorogenic peptide substrate (AID 1420); type: functional
T5 sequence (P43367 whole entry): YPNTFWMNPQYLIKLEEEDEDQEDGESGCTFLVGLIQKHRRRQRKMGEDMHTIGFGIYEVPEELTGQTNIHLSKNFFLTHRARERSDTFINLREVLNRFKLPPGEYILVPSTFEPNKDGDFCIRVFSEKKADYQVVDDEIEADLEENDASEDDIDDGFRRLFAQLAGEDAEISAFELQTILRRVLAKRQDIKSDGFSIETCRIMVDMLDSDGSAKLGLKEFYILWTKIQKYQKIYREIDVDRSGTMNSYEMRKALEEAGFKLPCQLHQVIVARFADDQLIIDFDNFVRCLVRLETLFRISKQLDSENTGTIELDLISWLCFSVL

[30] = target: DNA dC->dU-editing enzyme APOBEC-3A (Homo sapiens, UniProt P31941); test: SAR analysis of small molecule inhibitors of APOBEC3A DNA Deaminase via a fluorescence-based single-stranded DNA deaminase assay.; type: functional; settings: read-out: IC50_Mean
[31] = target: DNA dC->dU-editing enzyme APOBEC-3G (Homo sapiens, UniProt Q9HC16); test: APOBEC3G deaminase inhibitors, SAR follow-up, biochemical, fluorescence, single-stranded DNA substrate (AID 602136); type: functional; settings: read-out: IC50_Mean
[32] = target: DNA (cytosine-5)-methyltransferase 1 (Homo sapiens, UniProt P26358); test: DNMT1 methyltransferase inhibitors, confirmation, biochemical, fluorescent molecular beacon (AID 602386); type: functional
Chain of DNA (cytosine-5)-methyltransferase 1 (P26358 whole entry): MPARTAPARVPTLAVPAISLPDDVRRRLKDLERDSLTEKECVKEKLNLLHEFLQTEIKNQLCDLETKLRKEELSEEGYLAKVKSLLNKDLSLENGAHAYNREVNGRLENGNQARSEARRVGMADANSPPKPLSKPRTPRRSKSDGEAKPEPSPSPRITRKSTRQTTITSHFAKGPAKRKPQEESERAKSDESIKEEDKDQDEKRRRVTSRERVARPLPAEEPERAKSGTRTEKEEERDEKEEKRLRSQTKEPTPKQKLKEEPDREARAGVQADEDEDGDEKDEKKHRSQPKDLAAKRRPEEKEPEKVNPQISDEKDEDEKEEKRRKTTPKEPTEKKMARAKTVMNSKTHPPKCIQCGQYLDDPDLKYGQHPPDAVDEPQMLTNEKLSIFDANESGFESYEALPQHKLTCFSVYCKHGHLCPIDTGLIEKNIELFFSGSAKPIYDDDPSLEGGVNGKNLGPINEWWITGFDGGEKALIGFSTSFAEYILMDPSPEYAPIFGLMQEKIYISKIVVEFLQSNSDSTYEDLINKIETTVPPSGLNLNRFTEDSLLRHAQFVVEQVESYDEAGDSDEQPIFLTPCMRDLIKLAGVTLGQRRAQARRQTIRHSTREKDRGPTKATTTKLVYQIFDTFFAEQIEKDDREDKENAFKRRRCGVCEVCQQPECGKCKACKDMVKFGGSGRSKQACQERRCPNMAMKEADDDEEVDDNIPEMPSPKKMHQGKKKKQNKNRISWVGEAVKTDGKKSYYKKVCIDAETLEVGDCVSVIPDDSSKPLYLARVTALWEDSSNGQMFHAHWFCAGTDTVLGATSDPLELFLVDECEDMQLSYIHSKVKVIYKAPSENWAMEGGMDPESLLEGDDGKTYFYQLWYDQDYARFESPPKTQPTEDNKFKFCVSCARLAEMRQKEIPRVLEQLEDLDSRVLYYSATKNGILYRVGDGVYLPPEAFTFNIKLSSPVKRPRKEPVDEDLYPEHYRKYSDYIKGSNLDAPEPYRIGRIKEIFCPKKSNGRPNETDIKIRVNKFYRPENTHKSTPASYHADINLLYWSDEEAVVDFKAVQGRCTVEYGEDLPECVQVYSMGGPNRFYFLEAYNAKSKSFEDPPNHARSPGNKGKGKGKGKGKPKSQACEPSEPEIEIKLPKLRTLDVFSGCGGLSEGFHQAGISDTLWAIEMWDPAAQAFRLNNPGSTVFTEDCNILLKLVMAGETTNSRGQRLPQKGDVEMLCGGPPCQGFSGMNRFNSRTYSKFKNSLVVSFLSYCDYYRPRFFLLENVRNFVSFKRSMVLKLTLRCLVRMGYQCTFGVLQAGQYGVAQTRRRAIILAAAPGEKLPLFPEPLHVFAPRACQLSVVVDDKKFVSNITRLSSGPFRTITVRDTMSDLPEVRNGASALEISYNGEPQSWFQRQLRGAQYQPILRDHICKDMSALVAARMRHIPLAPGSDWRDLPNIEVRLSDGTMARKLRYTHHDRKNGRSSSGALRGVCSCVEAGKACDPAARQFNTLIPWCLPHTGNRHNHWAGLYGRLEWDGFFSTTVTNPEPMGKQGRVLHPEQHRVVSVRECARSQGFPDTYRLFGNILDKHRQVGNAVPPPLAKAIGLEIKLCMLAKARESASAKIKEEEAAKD

Chain of DNA dC->dU-editing enzyme APOBEC-3A (P31941 whole entry): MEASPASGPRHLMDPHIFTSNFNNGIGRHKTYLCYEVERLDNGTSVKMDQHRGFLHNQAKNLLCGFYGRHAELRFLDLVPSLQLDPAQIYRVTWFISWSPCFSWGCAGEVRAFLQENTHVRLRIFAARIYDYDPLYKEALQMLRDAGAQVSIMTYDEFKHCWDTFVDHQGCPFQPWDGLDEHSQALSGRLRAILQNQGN
Chain of DNA dC->dU-editing enzyme APOBEC-3G (Q9HC16 whole entry): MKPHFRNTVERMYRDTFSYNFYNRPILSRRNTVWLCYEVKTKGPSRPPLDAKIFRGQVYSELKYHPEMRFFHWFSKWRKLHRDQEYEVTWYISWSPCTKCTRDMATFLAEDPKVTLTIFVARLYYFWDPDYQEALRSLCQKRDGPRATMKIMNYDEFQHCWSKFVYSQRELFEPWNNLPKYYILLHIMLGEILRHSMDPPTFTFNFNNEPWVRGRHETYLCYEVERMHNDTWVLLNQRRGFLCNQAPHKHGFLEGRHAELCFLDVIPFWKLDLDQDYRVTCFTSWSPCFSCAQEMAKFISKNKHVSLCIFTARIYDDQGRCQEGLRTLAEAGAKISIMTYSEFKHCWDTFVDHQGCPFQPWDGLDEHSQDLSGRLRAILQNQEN
Chain of Paired box protein Pax-8 (Q06710 whole entry): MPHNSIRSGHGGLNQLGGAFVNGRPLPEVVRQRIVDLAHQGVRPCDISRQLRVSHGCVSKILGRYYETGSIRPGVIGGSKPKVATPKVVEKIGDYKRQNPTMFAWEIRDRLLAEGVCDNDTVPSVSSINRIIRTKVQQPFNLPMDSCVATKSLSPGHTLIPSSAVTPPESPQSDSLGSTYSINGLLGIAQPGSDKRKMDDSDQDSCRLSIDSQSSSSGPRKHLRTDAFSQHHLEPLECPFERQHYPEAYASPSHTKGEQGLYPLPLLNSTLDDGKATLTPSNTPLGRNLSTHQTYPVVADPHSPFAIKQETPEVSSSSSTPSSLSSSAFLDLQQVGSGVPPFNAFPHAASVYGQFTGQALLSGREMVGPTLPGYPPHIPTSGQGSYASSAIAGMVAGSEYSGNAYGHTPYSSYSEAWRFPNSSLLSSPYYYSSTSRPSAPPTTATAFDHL

N#CC(=C1CCCC1)c1nc(-c2ccccc2O)cs1
inactive: IC50 (Orexin receptor type 2 [1]) 19.8 µM | IC50 (Orexin receptor type 2 [2]) 31.6 µM | IC50 [4] > 49.7 µM | IC50 (CHO-K1) > 66.2 µM
active: IC50 [3] 6.43 µM | IC50 [5] 6.33 µM

CNC[C@@H](CC1CCCCC1)NC[C@H](CC(C)C)NCCc1cccc(C(F)(F)F)c1
> 38 µM (not active): EC50 [16]
active: AC50 [6] 3.24 µM | AC50 [7] 14.6 µM | EC50 [8] 4.69 µM | EC50 (Streptococcus) 9.26 µM | EC50 [11] 2.79 µM | AC50 (Paired box protein Pax-8) 9.93 µM | EC50 [12] 8.87 µM | EC50 (BJ [13]) 2.08 µM | IC50 (HEK293 [18]) 6.35 µM | AC50 [19] 4.66 µM | AC50 (INS1) 3.59 µM | EC50 [22] 7.84 µM | AC50 [25] 22.5 µM | AC50 [26] 3.86 µM | AC50 [27] 7.81 µM | EC50 (Insulin-degrading enzyme [28]) 6.62 µM
inconclusive: EC50 [9] 7.53 µM | EC50 (BJ [10]) 2.66 µM | EC50 (BJ [14]) 7.22 µM | EC50 (BJ [17]) 1.86 µM
> 120 µM (not active): EC50 [20]
inactive: IC50 [15] > 20 µM | IC50 [21] 29 µM | EC50 (Insulin-degrading enzyme [23]) > 54.7 µM | EC50 (HEK293 [24]) > 54.7 µM

O=C(CSc1ccc(-c2ccccc2)nn1)c1cccs1
> 50 µM (not active): IC50 [29]
active: IC50 [3] 3.37 µM | IC50 [5] 1.08 µM
inactive: IC50 (Orexin receptor type 2 [1]) > 50 µM | IC50 (Orexin receptor type 2 [2]) > 88.8 µM | IC50 [4] > 49.8 µM | IC50 (CHO-K1) > 66.2 µM

Cc1ccc(Cl)c2c1N[C@@H](c1ccccc1Br)[C@H]1CC=C[C@@H]21
inactive: IC50 [30] > 99 µM | IC50 [31] > 99 µM

CCc1ccc(Nc2nc(Nc3ccc(OC)cc3)nc(N3CCCC3)n2)cc1
inactive: IC50 [30] > 99 µM | IC50 [31] > 99 µM

Cc1ccc2cc3c(N)c4c(C)ccc(C)c4nc3nc2c1
inactive: IC50 [32] > 99 µM
